Where two headings read alike, the source gives them in different places.
Tests used:
[1] = tested on: EGFR-overexpressed A431 cells; test: Cellular growth of EGFR-overexpressed A431 cells; assay type: cell-based
[2] = tested on: phosphorylation of Btk and PLCγ2 in primary human B cells; test: BCR signaling in primary human B cells (immunoblot); assay type: cell-based; settings: BCR ligation
Experimental: Ramos cells or human B cells were pretreated with the indicated concentrations of HM71224 and then stimulated with anti-IgM F(ab’)2 (Southern Biotech, Birmingham, AL, USA) for 10 minutes on ice. Cells were then lysed in RIPA buffer (Sigma-Aldrich), and the proteins were separated by SDS-PAGE (Bio-Rad Laboratories, Hercules, CA, USA), transferred onto polyvinylidene fluoride (PVDF) membranes, and immunoblotted with anti-pBtk Y223 (catalog number 5082; Cell Signaling Technology, Danvers, MA, USA), anti-pPLCγ2 Y759 (catalog number 3874; Cell Signaling Technology), anti-pPLCγ2 Y1217 (Cell Signaling Technology), anti-pERK T202/204 (197G2; Cell Signaling Technology), anti-Btk (C82B8; Cell Signal Technology), anti-PLCγ2 (catalog number 3872; Cell Signal Technology), anti-ERK1/2 (3A7; Cell Signaling Technology), and anti-GAPDH (FL-335; Santa Cruz Biotechnology, Santa Cruz, TX, USA) antibodies.

human CD14+ monocytes = test: Osteoclast formation from human CD14+ cells (TRAP staining); assay type: cell-based; settings: Monocyte, 1000 nM
Experimental: Isolated human CD14 cells (1 × 10^5 cells per well) were cultured in a 96-well plate at 37 °C in alpha-minimum essential medium (MEM) supplemented with 10 % FBS and 25 ng/mL M-CSF (Sigma-Aldrich) in the presence of increasing concentrations of HM71224. RANKL (100 ng/mL, Sigma-Aldrich) was added after 3 days. The medium was replaced every 3 days. On day 9, cells were fixed with 3 % formaldehyde and stained for tartrate-resistant acid phosphatase (TRAP) expression (Sigma-Aldrich). To drive osteoclast formation from bone morrow cells, BMMs (4 × 10^4 per well) were stimulated with 30 ng/mL M-CSF and 100 ng/mL RANKL in the presence of increasing concentrations of HM71224 for 4 days. TRAP+ cells with three or more nuclei were counted as osteoclasts.

[3] = tested on: DBA/1 J mice with collagen-induced arthritis; test: Collagen-induced arthritis (CIA) model; assay type: in vivo, mouse
Experimental: All animal experimental protocols were approved by the animal care and use committee of the Hanmi Research Center, and performed in accordance with approved guidelines. Male DBA/1 J mice (9 weeks old; n = 7 per group) were immunized with an emulsion of Complete Freund’s Adjuvant and bovine type II collagen (CII) (total volume, 0.07 mL) via intradermal injection at the base of the tail (day 0). Three weeks later, the mice received a booster immunization comprising bovine CII emulsified in Incomplete Freund’s Adjuvant. […] The arthritis score and body weight were measured three times per week for 2 weeks after administration of the drugs (Additional file 1: Figure S1). The arthritis score was determined by grading each paw from 0 to 4 based on erythema, swelling, and flexion of the joint and was expressed as the sum of the scores of all four paws. Serum levels of IL-6 were measured by Luminex analysis in a bead-based immunoassay (EMD Millipore Corporation). Serum levels of anti-CII and total IgG were measured by ELISA (Chondrex, Seattle, WA, USA; Bethyl Laboratories, Montgomery, TX, USA).
Micro-CT of the hind limbs was performed using a Siemens Inveon Micro-CT/PET scanner (Siemens Medical Solutions, Knoxville, TN, USA).
The hind legs of each mouse were fixed with 10 % formalin, decalcified in 5 % formic acid, and embedded in paraffin. Sections were then cut and stained with hematoxylin and eosin (H&E). The bone erosion index was scored from 0 to 4 according to the following criteria: 0 = no erosion, 1 = mild (focal subchondral erosion), 2 = moderate (multiple subchondral erosions), 3 = high (as above and focal erosion of talus), and 4 = maximum (multiple erosions of tarsal and metatarsal bones).
Figure S1. Experiment design of collagen induced arthritis. Untreated DBA/1J mice (n=7) served as healthy controls (Ctrl). DBA/1J mice (n= 56) were immunized Day 0 and day 21. On day 10 after boosting (i.e. day 31), the induction of CIA was evaluated. […] Immunized mice (n=42) were divided into 6 groups (n=7 in each group). […] CIA, collagen induced arthritis.

BTK = BTK (Homo sapiens, UniProt Q06187); test: FRET-based Z'-Lyte kinase assay; design: purchased ThermoFisher Scientific (contract research organization); settings: read-out: Biochemical Inhibition, IC50
Excerpt: (§1) To determine the biochemical selectivity of HM71224, we tested more than 85 kinases using the fluorescence resonance energy transfer (FRET) method.

EGFR [4] = biological target: T1, EGFR (Homo sapiens, UniProt P00533); test: FRET-based Z'-Lyte kinase assay; design: purchased ThermoFisher Scientific (contract research organization); settings: read-out: Biochemical Inhibition, IC50
Excerpt: as §1

EGFR [5] = biological target: T1, EGFR; test: Phosphorylation of EGFR in cells; assay type: cell-based; design: EGFR-overexpressing epidermoid carcinoma A431 cell line; endogenous in cells; host or cells: A431; settings: cellular; read-out: IC50 on inhibiting EGFR phosphorylation

T1 sequence (P00533 25-1210): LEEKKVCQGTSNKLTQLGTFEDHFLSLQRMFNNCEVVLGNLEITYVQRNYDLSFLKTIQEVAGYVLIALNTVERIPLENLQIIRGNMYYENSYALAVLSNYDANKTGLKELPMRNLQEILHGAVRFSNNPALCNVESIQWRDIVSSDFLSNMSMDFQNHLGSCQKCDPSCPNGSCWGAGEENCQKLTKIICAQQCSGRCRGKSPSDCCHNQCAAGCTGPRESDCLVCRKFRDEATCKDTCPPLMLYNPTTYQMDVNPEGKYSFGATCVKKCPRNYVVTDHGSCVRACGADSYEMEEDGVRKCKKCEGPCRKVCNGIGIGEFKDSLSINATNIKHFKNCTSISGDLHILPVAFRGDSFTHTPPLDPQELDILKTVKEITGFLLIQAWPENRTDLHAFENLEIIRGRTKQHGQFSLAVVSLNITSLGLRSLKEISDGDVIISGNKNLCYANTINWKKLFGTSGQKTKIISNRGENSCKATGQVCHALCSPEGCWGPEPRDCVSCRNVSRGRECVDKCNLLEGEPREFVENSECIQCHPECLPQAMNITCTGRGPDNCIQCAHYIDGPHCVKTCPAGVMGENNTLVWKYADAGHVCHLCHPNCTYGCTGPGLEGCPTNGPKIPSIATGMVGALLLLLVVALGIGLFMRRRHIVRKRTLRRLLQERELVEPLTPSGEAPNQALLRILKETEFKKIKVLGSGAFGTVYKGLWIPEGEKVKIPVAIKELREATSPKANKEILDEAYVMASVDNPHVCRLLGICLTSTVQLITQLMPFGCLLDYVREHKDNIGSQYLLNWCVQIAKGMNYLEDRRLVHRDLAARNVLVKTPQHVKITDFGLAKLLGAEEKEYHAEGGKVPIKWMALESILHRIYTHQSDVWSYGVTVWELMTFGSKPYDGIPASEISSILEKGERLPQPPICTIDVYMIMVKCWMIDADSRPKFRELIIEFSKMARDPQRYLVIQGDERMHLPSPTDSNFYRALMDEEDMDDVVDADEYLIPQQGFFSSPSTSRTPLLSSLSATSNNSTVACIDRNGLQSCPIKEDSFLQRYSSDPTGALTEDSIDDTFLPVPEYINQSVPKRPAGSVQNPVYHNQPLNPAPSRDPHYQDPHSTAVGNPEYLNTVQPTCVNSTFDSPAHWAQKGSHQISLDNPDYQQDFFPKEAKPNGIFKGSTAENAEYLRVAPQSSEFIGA
Chain of BTK (Q06187 whole entry): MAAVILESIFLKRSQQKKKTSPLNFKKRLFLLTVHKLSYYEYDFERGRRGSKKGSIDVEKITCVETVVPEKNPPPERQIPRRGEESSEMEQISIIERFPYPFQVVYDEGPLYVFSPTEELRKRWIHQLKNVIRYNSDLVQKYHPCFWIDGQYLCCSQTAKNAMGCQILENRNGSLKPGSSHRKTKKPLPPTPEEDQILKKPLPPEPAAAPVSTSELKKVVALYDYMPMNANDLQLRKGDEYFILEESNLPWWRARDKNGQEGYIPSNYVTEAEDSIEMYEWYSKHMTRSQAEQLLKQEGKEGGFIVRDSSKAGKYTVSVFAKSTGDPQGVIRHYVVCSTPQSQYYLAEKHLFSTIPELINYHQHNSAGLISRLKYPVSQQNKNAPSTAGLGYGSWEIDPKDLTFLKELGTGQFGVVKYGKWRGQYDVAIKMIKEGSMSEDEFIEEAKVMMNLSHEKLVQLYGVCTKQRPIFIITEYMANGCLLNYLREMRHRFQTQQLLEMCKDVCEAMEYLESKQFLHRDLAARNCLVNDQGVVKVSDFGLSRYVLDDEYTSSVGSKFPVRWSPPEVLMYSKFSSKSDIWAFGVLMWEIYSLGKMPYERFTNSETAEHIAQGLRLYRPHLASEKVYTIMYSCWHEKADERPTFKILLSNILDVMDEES

`C=CC(=O)Nc1cccc(Oc2nc(Nc3ccc(N4CCN(C)CC4)cc3)nc3ccoc23)c1` [HM71224] was tested, and the GI50 ([1]; Homo sapiens, A-431, read-out: GI50, concentration to inhibit 50 % of cellular growth, EGFR-overexpressed A431 cells) was 1 µM, the GI50 ([1]; read-out: GI50, concentration to inhibit 50 % of cellular growth, EGFR-overexpressed A431 cells) was over 1 µM and the “Phosphorylation of Btk and PLCγ2” value [2] was “effectively inhibited”. The inhibition at 1 µM (human CD14+ monocytes) was about 50%, the “Levels of circulating anti-collagen antibodies vs untreated group” value ([3]; CIA mice) was “significantly lower” and the “Serum IL-6 levels vs untreated group” value ([3]; CIA mice) was “significantly lower”. The “Total IgG level” value ([3]; CIA mice) was “tended to be lower”, the “Erosive bone changes and bone loss” value ([3]; CIA mice, H&E section) was “markedly reduced erosive bone changes and prevented bone loss” and the Weight loss ([3]; dose of 3 mg/kg or higher) was “prevented weight loss”. For the same compound, the “AS, arthritis score” value ([3]; oral 1mg/kg once a day, D0) was 1.1±0.7, the “Wt, weight” value ([3]; oral 1mg/kg once a day, D0) was 22.7±0.5 gram and the “AS, arthritis score” value ([3]; oral 1mg/kg once a day, D1) was 1.1±0.7. The “Wt, weight” value ([3]; oral 1mg/kg once a day, D1) was 22.5±0.5 gram, the “AS, arthritis score” value ([3]; oral 1mg/kg once a day, D4) was 1.9±0.9 and the “Wt, weight” value ([3]; oral 1mg/kg once a day, D4) was 22.2±0.6 gram. For the same compound, the “AS, arthritis score” value ([3]; oral 1mg/kg once a day, D6) was 2.1±1.1, the “Wt, weight” value ([3]; oral 1mg/kg once a day, D6) was 21.9±0.5 gram and the “AS, arthritis score” value ([3]; oral 1mg/kg once a day, D8) was 2.9±1.1. For the same compound, the “Wt, weight” value ([3]; oral 1mg/kg once a day, D8) was 22.1±0.5 gram, the “AS, arthritis score” value ([3]; oral 1mg/kg once a day, D12) was 5.0±1.0 and the “Wt, weight” value ([3]; oral 1mg/kg once a day, D12) was 21.6±0.5 gram. For the same compound, the “AS, arthritis score” value ([3]; oral 1mg/kg once a day, D13) was 6.6±0.7, the “Wt, weight” value ([3]; oral 1mg/kg once a day, D13) was 21.4±0.4 gram and the “AS, arthritis score” value ([3]; oral 1mg/kg once a day, D15) was 6.6±0.9. The “Wt, weight” value ([3]; oral 1mg/kg once a day, D15) was 21.2±0.3 gram, the “AS, arthritis score” value ([3]; oral 3mg/kg once a day, D0) was 1.1±0.3 and the “Wt, weight” value ([3]; oral 3mg/kg once a day, D0) was 22.7±0.4 gram. The “AS, arthritis score” value ([3]; oral 3mg/kg once a day, D1) was 1.3±0.7, the “Wt, weight” value ([3]; oral 3mg/kg once a day, D1) was 22.3±0.5 gram and the “AS, arthritis score” value ([3]; oral 3mg/kg once a day, D4) was 1.9±0.6. For the same compound, the “Wt, weight” value ([3]; oral 3mg/kg once a day, D4) was 22.2±0.4 gram, the “AS, arthritis score” value ([3]; oral 3mg/kg once a day, D6) was 1.9±0.6 and the “Wt, weight” value ([3]; oral 3mg/kg once a day, D6) was 22.4±0.4 gram. The “AS, arthritis score” value ([3]; oral 3mg/kg once a day, D8) was 2.0±0.7, the “Wt, weight” value ([3]; oral 3mg/kg once a day, D8) was 22.5±0.4 gram and the “AS, arthritis score” value ([3]; oral 3mg/kg once a day, D12) was 3.1±0.9. For the same compound, the “Wt, weight” value ([3]; oral 3mg/kg once a day, D12) was 22.6±0.4 gram, the “AS, arthritis score” value ([3]; oral 3mg/kg once a day, D13) was 3.4±1.2 and the “Wt, weight” value ([3]; oral 3mg/kg once a day, D13) was 22.6±0.4 gram. For the same compound, the “AS, arthritis score” value ([3]; oral 3mg/kg once a day, D15) was 3.4±1.4, the “Wt, weight” value ([3]; oral 3mg/kg once a day, D15) was 22.5±0.4 gram and the “AS, arthritis score” value ([3]; oral 10mg/kg once a day, D0) was 1.1±0.6. For the same compound, the “Wt, weight” value ([3]; oral 10mg/kg once a day, D0) was 23.0±0.2 gram, the “AS, arthritis score” value ([3]; oral 10mg/kg once a day, D1) was 0.9±0.3 and the “Wt, weight” value ([3]; oral 10mg/kg once a day, D1) was 22.8±0.3 gram. For the same compound, the “AS, arthritis score” value ([3]; oral 10mg/kg once a day, D4) was 0.4±0.2, the “Wt, weight” value ([3]; oral 10mg/kg once a day, D4) was 23.2±0.3 gram and the “AS, arthritis score” value ([3]; oral 10mg/kg once a day, D6) was 0.6±0.4. For the same compound, the “Wt, weight” value ([3]; oral 10mg/kg once a day, D6) was 23.0±0.3 gram, the “AS, arthritis score” value ([3]; oral 10mg/kg once a day, D8) was 0.6±0.3 and the “Wt, weight” value ([3]; oral 10mg/kg once a day, D8) was 23.2±0.3 gram. For the same compound, the “AS, arthritis score” value ([3]; oral 10mg/kg once a day, D12) was 1.0±0.4, the “Wt, weight” value ([3]; oral 10mg/kg once a day, D12) was 23.5±0.3 gram and the “AS, arthritis score” value ([3]; oral 10mg/kg once a day, D13) was 0.7±0.4. The “Wt, weight” value ([3]; oral 10mg/kg once a day, D13) was 23.8±0.3 gram, the “AS, arthritis score” value ([3]; oral 10mg/kg once a day, D15) was 0.7±0.4 and the “Wt, weight” value ([3]; oral 10mg/kg once a day, D15) was 23.9±0.3 gram. The “AS, arthritis score” value ([3]; oral 30mg/kg once a day, D0) was 1.1±0.5, the “Wt, weight” value ([3]; oral 30mg/kg once a day, D0) was 22.6±0.5 gram and the “AS, arthritis score” value ([3]; oral 30mg/kg once a day, D1) was 0.9±0.3. The “Wt, weight” value ([3]; oral 30mg/kg once a day, D1) was 22.0±0.5 gram, the “AS, arthritis score” value ([3]; oral 30mg/kg once a day, D4) was 0.3±0.2 and the “Wt, weight” value ([3]; oral 30mg/kg once a day, D4) was 22.1±0.4 gram. For the same compound, the “AS, arthritis score” value ([3]; oral 30mg/kg once a day, D6) was 0.3±0.2, the “Wt, weight” value ([3]; oral 30mg/kg once a day, D6) was 22.1±0.4 gram and the “AS, arthritis score” value ([3]; oral 30mg/kg once a day, D8) was 0.4±0.2. For the same compound, the “Wt, weight” value ([3]; oral 30mg/kg once a day, D8) was 22.4±0.4 gram, the “AS, arthritis score” value ([3]; oral 30mg/kg once a day, D12) was 0.4±0.2 and the “Wt, weight” value ([3]; oral 30mg/kg once a day, D12) was 22.5±0.4 gram. For the same compound, the “AS, arthritis score” value ([3]; oral 30mg/kg once a day, D13) was 0.4±0.3, the “Wt, weight” value ([3]; oral 30mg/kg once a day, D13) was 22.9±0.5 gram and the “AS, arthritis score” value ([3]; oral 30mg/kg once a day, D15) was 0.3±0.2. The “Wt, weight” value ([3]; oral 30mg/kg once a day, D15) was 22.8±0.4 gram, the “Arthritis score vs untreated CIA mice” value ([3]; oral once a day for 2 weeks, P < 0.05 at 10 mg/kg, P < 0.01 at 30 mg/kg) was “lower arthritis scores than untreated CIA mice” and the IC50 (BTK) was 0.00195 µM. It also gave an IC50 (EGFR [4]) of 0.00496 µM and an IC50 (EGFR [5]) of 0.8 µM.
